Measured values reported in article PMC5323132, “Targeting prohibitins induces apoptosis in acute myeloid leukemia cells” (Oncotarget, 2016).
“And” between values parts separate entries of the source, which are not always exact repeats. Identical values can stand only once. Like-named read-outs stand apart in the source and are kept apart here.

Experiments:
U-937 cells [1] = assay: Viability by phosphatidylserine exposure (annexin V) flow cytometry; assay type: cell-based, human; conditions: for viability at 5 µM: Homo sapiens, read-out: Viability (%) (annexin V negative cells)
Experimental: (§1) Cell viability was assessed by phosphatidylserine exposure and measured as the percentage of annexin V-negative cell population. […] Occasionally, 3.75 μL PI were added after annexin V staining and immediately before acquisition to measure the percentage of annexin V^−/PI^− live cells. In AML samples with infiltration lower than 80% blasts, double staining with anti-CD33 or anti-CD34, and annexin V was performed. In brief, cells were washed in ABB and incubated in 50 μL ABB containing 0.5 μL anti-CD33 or anti-CD34 for 10 min in the dark and thereafter stained with annexin V, as previously mentioned. Cells were acquired using the FACSCanto^TM II flow cytometer (Becton Dickinson, Franklin Lakes, NJ, USA) and data of bulk leukemic/normal and CD33^+- or CD34^+-gated leukemic/normal progenitor cells were analyzed using the FACSDiva^TM software (Becton Dickinson). […] Patient samples were considered as “sensitive” to fluorizoline when cell viability was lower than 80% after incubation with 20 μM during 48 hours.

primary AML cells = assay: Methylcellulose colony-forming unit (CFU) assay; assay type: cell-based, human; conditions: pretreated 24 hours, n = 5
Experimental: (§2) The analysis of the clonogenic capacity after exposition to the fluorizoline was performed using a methylcellulose-based medium with recombinant cytokines and erythropoietin (EPO) for human hematopoietic progenitor cells (MethoCult^TM H4034 Optimum, StemCell Technologies). U-937 cells and primary AML cells were pretreated for 24 hours with the indicated factors, as previously mentioned. Then, cells (1 × 10^3 U-937 cells or 50 × 10^3 primary AML cells) were diluted in 100 μL serum-free IMDM with 25 mM HEPES, homogeneously mixed with 1 mL MethoCult^TM medium, seeded in duplicate cultures and maintained at 37°C with 5% CO2 in air in a humidified atmosphere. Colonies (CFU) were screened based on morphology and cellularity at day 10 (U-937 cells) or day 14 (primary AML cells) using an inverted microscope. A colony was defined as a cluster of > 40 cells.

U-937 cells [2] = assay: Methylcellulose colony-forming unit (CFU) assay; assay type: cell-based, human; conditions: pretreated 24 hours, n = 4
Experimental: as §2

[3] = test system: CD11b in de novo AML primary samples; assay: Differentiation assay, CD11b surface expression by flow cytometry; assay type: cell-based; conditions: Homo sapiens, 48 hours, read-out: CD11b surface marker expression, fold induction compared to DMSO-treated cells
Experimental: (§3) Myeloid maturation induction was assessed by cell surface marker expression analysis. U-937 and primary AML cells were treated as indicated for cell viability assays. After 24 and 48 hours of incubation cells were collected and stained in 50 μL PBS buffer containing 2 mM EDTA and 0.5% bovine serum albumin (BSA) with 0.5 μL anti-human CD11b for 10 min in the dark and then diluted with buffer to a final volume of 150 μL. In parallel, cell viability was analyzed by annexin V staining in separated tubes. Surface expression of the antigen was analyzed by flow cytometry. In these experiments vehicle-treated cells were also included in order to discard DMSO-induced myeloid differentiation.

CD11b in U-937 cells = assay: as above; assay type: cell-based; conditions: Homo sapiens, 48 hours, read-out: CD11b surface marker expression, fold induction compared to DMSO-treated cells
Experimental: as §3

NOXA mRNA in U-937 cells = assay: RT-MLPA apoptosis-related gene expression; assay type: cell-based; conditions: Homo sapiens
Experimental: RNA was isolated from cultured 3–5 × 10^6 cells by the RNeasy Micro kit (Qiagen GmbH, Hilden, Germany) according to the manufacturer's protocol. RNA was analyzed by RT-MLPA using SALSA MLPA KIT R011-C1 Apoptosis mRNA from MRC-Holland (Amsterdam, The Netherlands) for the simultaneous detection of 40 messenger RNA molecules, including apoptosis-related genes. In brief, RNA samples (200 ng total RNA) were first reverse transcribed using a gene-specific primer mix. The resulting cDNA was annealed overnight at 60°C to the RT-MLPA probe mix. Annealed oligonucleotides were ligated by adding Ligase-65 (MRC-Holland) and incubated at 54°C for 15 min. Ligation products were amplified by PCR (35 cycles, 30 s at 95°C; 30 s at 60°C, and 1 min at 72°C) with one unlabeled and one FAM-labeled primer. The final PCR fragments amplified were separated by capillary electrophoresis on a 96-capillary ABI-Prism® 3730XL Genetic Analyzer (Applied Biosystems/Hitachi, Carlsbad, CA, USA). Peak area and height were measured using GeneMapper^TM v3.0 analysis software (Applied Biosystems). Ratios of individual peaks relative to the sum of all peaks were calculated, resulting in the relative abundance of mRNAs of the genes of interest.

[4] = test system: normal BMMNC and normal hematopoietic stem cells (PBSC); assay: Ex vivo viability (annexin V) of normal hematologic cells; assay type: cell-based, human; conditions: for median LD50: normal cells
Experimental: (§4) Normal BMMNC was obtained from apheresis-collected granulocyte colony-stimulating factor (G-CSF)-mobilized progenitor-cell from PB of 3 healthy donors were used as a source of normal CD34^+ cells.
as §1

[5] = as above; assay type: cell-based, human; conditions: human, normal BMMNC and normal hematopoietic stem cells (PBSC); normal cells, 20 μM, 24 hours; read-out: viable cells (percentage of viability of untreated cells)
Experimental: as §4, §1

[6] = test system: CD34- population of AML specimens; assay: Ex vivo viability (annexin V) on CD34- population of AML specimens; assay type: cell-based, human; conditions: six AML specimens, 48 hours
Experimental: (§5) Cell viability was assessed by phosphatidylserine exposure and measured as the percentage of annexin V-negative cell population. After incubation of 1.25 × 10^5 cells with the indicated factors and times, cells were then washed in annexin-binding buffer (ABB) and incubated in 100 μL ABB with 0.5 μL annexin V-APC for 10 min in the dark and then diluted with ABB to a final volume of 150 μL. Occasionally, 3.75 μL PI were added after annexin V staining and immediately before acquisition to measure the percentage of annexin V^−/PI^− live cells. In AML samples with infiltration lower than 80% blasts, double staining with anti-CD33 or anti-CD34, and annexin V was performed. In brief, cells were washed in ABB and incubated in 50 μL ABB containing 0.5 μL anti-CD33 or anti-CD34 for 10 min in the dark and thereafter stained with annexin V, as previously mentioned. Cells were acquired using the FACSCanto^TM II flow cytometer (Becton Dickinson, Franklin Lakes, NJ, USA) and data of bulk leukemic/normal and CD33^+- or CD34^+-gated leukemic/normal progenitor cells were analyzed using the FACSDiva^TM software (Becton Dickinson). Half-maximal lethal dose (LD50) was defined as the concentration of drug required to reduce the cell viability by 50%. Patient samples were considered as “sensitive” to fluorizoline when cell viability was lower than 80% after incubation with 20 μM during 48 hours.

[7] = test system: primary AML cells (BMMNC or PBMNC from AML patients); assay: Ex vivo viability (annexin V) of primary AML cells; assay type: cell-based, human
Experimental: PBMNC and BMMNC were isolated by centrifugation on a Biocoll (Biochrom AG, Berlin, Germany) gradient and cryopreserved in liquid nitrogen in the presence of 10% dimethyl sulfoxide (DMSO) (Sigma-Aldrich Inc, St Louis, MO, USA).
as §1

HL-60 cells [8] = assay: MTT cell viability assay; assay type: cell-based; conditions: Homo sapiens, read-out: IC50 (half-maximal inhibitory concentration), MTT
Experimental: (§6) HL-60 and U-937 cells (1.25 × 10^5 cells/well) were incubated in the absence or in the presence of the indicated factors, in a final volume of 250 μL. After 24 or 48 hours, 25 μL MTT reagent (prepared at 5 mg/mL in phosphate-buffered saline (PBS)) was added to each well for an additional 3 hours. The blue MTT formazan precipitate was dissolved in 250 μL isopropanol:1 M HCl (24:1). Then, 100 μL of this cell lysate were plated in a 96-well plate in triplicate and the absorbance values at 570 nm were measured on a multiwell plate reader. The half-maximal inhibitory concentration (IC50) was defined as the concentration of drug required to reduce the MTT metabolization ability by 50%.

U-937 cells [9] = assay: MTT cell viability assay; assay type: cell-based; conditions: Homo sapiens, read-out: IC50 (half-maximal inhibitory concentration), MTT
Experimental: as §6

[10] = test system: CD34+ population of AML specimens; assay: Ex vivo viability (annexin V) on CD34+ population of AML specimens; assay type: cell-based, human; conditions: six AML specimens, 48 hours
Experimental: as §5

HL-60 cells [11] = assay: Viability by phosphatidylserine exposure (annexin V) flow cytometry; assay type: cell-based, human; conditions: 48 hours
Experimental: as §5

[12] = Figure 5C, 24 h, fluorizoline 5 μM, Q-VD-OPh 20 μM pre-incubated 30 min

Structure (SMILES): CC(C)[C@H](NC(=O)c1ccc2ccccc2n1)C(=O)N[C@@H](CC(=O)O)C(=O)COc1c(F)cccc1F [Q-VD-OPh, reference compound]
- Viability (%) (annexin V negative cells) (U-937 cells [1]; [12]): 95%

Structure (SMILES): FC1(F)N=C(c2ccc(Cl)cc2)SC1(F)c1ccc(Cl)cc1 (centres unmarked) [fluorizoline]
- mean CFU respect to untreated cells (primary AML cells; 2.5 μM): 39.9 ± 5%
- mean CFU respect to untreated cells (primary AML cells; 10 μM): 5.3 ± 1.5%
- mean CFU respect to untreated cells (U-937 cells [2]; 5 μM): 49.9 ± 5%
- mean CFU respect to untreated cells (U-937 cells [2]; 10 μM): 1.9 ± 1%
- fold induction at 20 µM [3]: 1.5
- fold induction at 40 µM (CD11b in U-937 cells): 12.1
- fold induction at 10 µM (NOXA mRNA in U-937 cells; 4 hours): 3.5
- fold induction at 10 µM (NOXA mRNA in U-937 cells; 8 hours): 6.6
- fold induction at 10 µM (NOXA mRNA in U-937 cells; 24 hours): 3.1
- LD50(μM) 24 h ([4]; Donor No. 1-9, 24 h): > 20 µM and 16 µM
- LD50(μM) 48 h ([4]; Donor No. 1-9, 48 h): > 20 µM and 8 µM and 13 µM
- median LD50 ([4]; 24 hours): above 20 μM
- median LD50 ([4]; 48 hours): above 20 μM
- viability at 24 h, 20 µM [5]: 68.6%
- LD50 [6]: higher than 20 μM
- median LD50 ([7]; 24 hours, sensitive patient samples (n = 15)): 8.0 ± 1.7 µM
- mean LD50 ([7]; 48 hours, n = 21): 5.3 ± 0.8 µM
- viability at 10 µM ([7]; Homo sapiens, 2 h, Figure 6B, patient #14, 10 μM, 2 h, read-out: Viability (%) (annexin V negative cells)): 95%
- viability at 10 µM ([7]; Homo sapiens, 4 h, Figure 6B, patient #14, 10 μM, 4 h, read-out: Viability (%) (annexin V negative cells)): 92%
- viability at 10 µM ([7]; Homo sapiens, 8 h, Figure 6B, patient #14, 10 μM, 8 h, read-out: Viability (%) (annexin V negative cells)): 87%
- viability at 10 µM ([7]; Homo sapiens, 8 h, Figure 6C, patient #13, 10 μM, 8 h, read-out: Viability (%) (annexin V negative cells)): 35%
- viability at 10 µM ([7]; Homo sapiens, 8 h, Figure 6C, patient #16, 10 μM, 8 h, read-out: Viability (%) (annexin V negative cells)): 50%
- viability at 10 µM ([7]; Homo sapiens, 8 h, Figure 6C, patient #18, 10 μM, 8 h, read-out: Viability (%) (annexin V negative cells)): 80%
- viability at 10 µM ([7]; Homo sapiens, 8 h, Figure 6C, patient #20, 10 μM, 8 h, read-out: Viability (%) (annexin V negative cells)): 43%
- viability at 2.5 µM ([7]; Homo sapiens, 8 h, Figure 6C, patient #21, 2.5 μM, 8 h, read-out: Viability (%) (annexin V negative cells)): 37%
- viability at 10 µM ([7]; Homo sapiens, 12 h, Figure 6B, patient #14, 10 μM, 12 h, read-out: Viability (%) (annexin V negative cells)): 81%
- viability at 10 µM ([7]; Homo sapiens, 24 h, 10 μM, 24 hours, n = 20 AML samples, untreated 75.8% ± 2.9%, read-out: cell viability (annexin V negative cells)): 35.5%
- viability at 10 µM ([7]; Homo sapiens, Figure 6D, patient #20, 24 h, fluorizoline 10 μM, Q-VD-OPh 20 μM pre-incubated 30 min, read-out: Viability (%) (annexin V negative cells)): 25%
- median LD50 ([7]; samples at relapse (n = 6), 24 hours): 10.3 ± 4.0 µM
- median LD50 ([7]; samples at relapse (n = 6), 48 hours): 5.4 ± 1.6 µM
- IC50 (HL-60 cells [8]; HL-60, 24 h): 8 µM
- IC50 (HL-60 cells [8]; HL-60, 48 h): 6 µM
- IC50 (U-937 cells [9]; U-937, 24 h): 7 µM
- IC50 (U-937 cells [9]; U-937, 48 h): 5 µM
- annexin V-/PI+ population (U-937 cells [1]; 10 µM fluorizoline, 24 h, annexin V/PI double staining): less than 6%
- mean LD50, annexin V (U-937 cells [1]; 24 hours): above 40 μM
- mean LD50, annexin V (U-937 cells [1]; 48 hours): 14 µM
- viability at 5 µM (U-937 cells [1]; Figure 5B, 5 μM, 4 h): 93%
- viability at 5 µM (U-937 cells [1]; Figure 5B, 5 μM, 8 h): 92%
- viability at 5 µM (U-937 cells [1]; Figure 5B, 5 μM, 24 h): 64%
- viability at 5 µM (U-937 cells [1]; [12]): 63%
- LD50 [10]: 4.5 ± 2.3 µM
- LD50 (half-maximal lethal dose), annexin V (HL-60 cells [11]): 40 µM
